Reference: ChEMBL document CHEMBL1201862, “PubChem BioAssay data set” (2004)
Values joined by “and” are separate entries in the source; they are usually repeats but may differ in a detail not shown here. Equal values may be shown once.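 Growth conditions: 96-well plates. Treatment: test compound, 48 hours, 5 concentrations. Analysis: linear interpolation between bracketing concentrations; unreached endpoints set to highest concentration. Here, GI50 denotes the concentration required for 50% inhibition of growth.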 Active and inactive are the calls of the source. Cut-off read from the data, not from the text of the source: active = GI50 up to about 1.1 µM and inactive = higher.

Key:
Assay in all cases: NCI-60 cell line screen, 48 h
786-0 = tested on: 786-0
BT-549 = tested on: BT-549
DU-145 = tested on: DU-145
HL-60 = tested on: HL-60
HOP-62 = tested on: HOP-62
IGROV-1 = tested on: IGROV-1
KM12 = tested on: KM12
MOLT-4 = tested on: MOLT-4
NCI-H23 = tested on: NCI-H23
NCI-H460 = tested on: NCI-H460
NCI-H522 = tested on: NCI-H522
NCI/ADR-RES = tested on: NCI/ADR-RES
OVCAR-3 = tested on: OVCAR-3
RPMI-8226 = tested on: RPMI-8226
RXF 393 = tested on: RXF 393
SF-295 = tested on: SF-295
SNB-19 = tested on: SNB-19
UACC-62 = tested on: UACC-62
UO-31 = tested on: UO-31
HCT-15 = tested on: HCT-15

Row | SMILES | GI50 (786-0) | GI50 (BT-549) | GI50 (DU-145) | GI50 (HL-60) | GI50 (HOP-62) | GI50 (IGROV-1) | GI50 (KM12) | GI50 (MOLT-4) | GI50 (NCI-H23) | GI50 (NCI-H460) | GI50 (NCI-H522) | GI50 (NCI/ADR-RES) | GI50 (OVCAR-3) | GI50 (RPMI-8226) | GI50 (RXF 393) | GI50 (SF-295) | GI50 (SNB-19) | GI50 (UACC-62) | GI50 (UO-31) | GI50 (HCT-15) [µM]
1 | Cc1cc(-c2cc(C)c(O)c(C(C)(C)C)c2)cc(C(C)(C)C)c1O | 10.7 µM (inactive) and 13.1 µM (inactive) | 14.1 µM (inactive) and 13.1 µM (inactive) | 15.2 µM (inactive) and 11.8 µM (inactive) | 12 µM (inactive) | 17.8 µM (inactive) and 17.3 µM (inactive) | 20.8 µM (inactive) and 12 µM (inactive) | 6.07 µM (inactive) and 9.06 µM (inactive) | 5.79 µM (inactive) and 5.86 µM (inactive) | 10.4 µM (inactive) and 12.9 µM (inactive) | 6.68 µM (inactive) and 5.46 µM (inactive) | 10.5 µM (inactive) and 12.3 µM (inactive) | 11 µM (inactive) and 14 µM (inactive) | 12.2 µM (inactive) and 14.1 µM (inactive) | 18.9 µM (inactive) and 12.9 µM (inactive) | 13.4 µM (inactive) and 11 µM (inactive) | 9.82 µM (inactive) and 11.1 µM (inactive) | 14.6 µM (inactive) and 13.7 µM (inactive) | 13.3 µM (inactive) and 13.6 µM (inactive) | 11 µM (inactive) and 18.1 µM (inactive) | 
2 | Oc1nc2ccccc2c(O)c1Cc1ccccc1 | > 100 µM (inactive) | > 100 µM (inactive) | > 100 µM (inactive) | > 100 µM (inactive) | > 100 µM (inactive) | > 100 µM (inactive) | > 100 µM (inactive) | > 100 µM (inactive) | > 100 µM (inactive) | > 100 µM (inactive) | > 100 µM (inactive) | > 100 µM (inactive) | > 100 µM (inactive) | > 100 µM (inactive) | > 100 µM (inactive) | > 100 µM (inactive) | > 100 µM (inactive) |  | > 10 µM (inactive) | > 100
3 | Cc1ccc(-n2nnc(C#N)c2O)cc1 | > 100 µM (inactive) | > 100 µM (inactive) | > 100 µM (inactive) | > 100 µM (inactive) | > 100 µM (inactive) | > 100 µM (inactive) | > 100 µM (inactive) | > 100 µM (inactive) | > 100 µM (inactive) | > 100 µM (inactive) | > 100 µM (inactive) | > 100 µM (inactive) | > 100 µM (inactive) | > 100 µM (inactive) | > 100 µM (inactive) | > 100 µM (inactive) | > 100 µM (inactive) | > 100 µM (inactive) | > 100 µM (inactive) | > 100
4 | Nc1ncc(Br)c(NCC2(CO)CCC2)n1 | > 100 µM (inactive) | > 100 µM (inactive) | 81.3 µM (inactive) | > 100 µM (inactive) | > 100 µM (inactive) | > 100 µM (inactive) | > 100 µM (inactive) | 80 µM (inactive) | > 100 µM (inactive) | 71.9 µM (inactive) | 92 µM (inactive) | 95.5 µM (inactive) | > 100 µM (inactive) | 42.8 µM (inactive) | > 100 µM (inactive) | 97.1 µM (inactive) |  | > 100 µM (inactive) | 79.6 µM (inactive) | > 100
5 | CC(N1CCOCC1)C(O)(c1ccccc1)c1ccccn1 (configuration not stated) | > 100 µM (inactive) | > 100 µM (inactive) | > 100 µM (inactive) | 44.9 µM (inactive) | > 100 µM (inactive) | > 100 µM (inactive) | > 100 µM (inactive) |  | > 100 µM (inactive) | > 100 µM (inactive) | > 100 µM (inactive) | > 100 µM (inactive) | > 100 µM (inactive) | > 100 µM (inactive) | > 100 µM (inactive) | > 100 µM (inactive) | > 100 µM (inactive) | 37.8 µM (inactive) | > 100 µM (inactive) | > 100
6 | CC(C)COC(=O)OC(=O)c1ccc(N(C)Cc2cnc3nc(N)nc(N)c3n2)cc1 | 5.37 µM (inactive) | 20.9 µM (inactive) | 53.7 µM (inactive) | 8.34 µM (inactive) | 59.7 µM (inactive) | 8.3 µM (inactive) | 26.5 µM (inactive) | 4.31 µM (inactive) | 11 µM (inactive) | 5.64 µM (inactive) | 23.1 µM (inactive) | > 36.3 µM (inactive) | > 100 µM (inactive) | > 80.9 µM (inactive) | 16.1 µM (inactive) | 15.7 µM (inactive) | 16.1 µM (inactive) | 6.53 µM (inactive) | > 51.3 µM (inactive) | 1.75
7 | Cc1ccc(S(=O)(=O)NC(=O)NC(CCCCN)C(=O)O)cc1 (configuration not stated) | > 100 µM (inactive) | > 100 µM (inactive) | > 100 µM (inactive) | > 100 µM (inactive) | > 100 µM (inactive) | > 100 µM (inactive) | > 100 µM (inactive) | > 100 µM (inactive) | > 100 µM (inactive) | > 100 µM (inactive) | > 100 µM (inactive) | > 100 µM (inactive) |  | > 100 µM (inactive) | > 100 µM (inactive) | > 100 µM (inactive) | > 100 µM (inactive) | > 100 µM (inactive) | > 100 µM (inactive) | > 100
8 | CN1C(=O)C(C(N)=O)C2CC1(C)Oc1ccccc12 (configuration not stated) | > 100 µM (inactive) | > 100 µM (inactive) | > 100 µM (inactive) | > 100 µM (inactive) | > 100 µM (inactive) | > 100 µM (inactive) | > 100 µM (inactive) | > 100 µM (inactive) | > 100 µM (inactive) | > 100 µM (inactive) | > 100 µM (inactive) | > 100 µM (inactive) | > 100 µM (inactive) | > 100 µM (inactive) | > 100 µM (inactive) |  | > 100 µM (inactive) | > 100 µM (inactive) |  | > 100
9 | O=C(OCc1ccccc1)N1c2cc([N+](=O)[O-])ccc2C(=O)N2CCC[C@H]2C1O (some centres not stated) | > 100 µM (inactive) | > 100 µM (inactive) | > 100 µM (inactive) | > 100 µM (inactive) | > 100 µM (inactive) | > 100 µM (inactive) | > 100 µM (inactive) | > 100 µM (inactive) | > 100 µM (inactive) | > 100 µM (inactive) | > 100 µM (inactive) | > 100 µM (inactive) | > 100 µM (inactive) | > 100 µM (inactive) | > 100 µM (inactive) | > 100 µM (inactive) | > 100 µM (inactive) | > 100 µM (inactive) | > 100 µM (inactive) | > 100
10 | C=C(CCOC)CCC1CCCCC(=C)C1=O (configuration not stated) | > 100 µM (inactive) | > 100 µM (inactive) | > 100 µM (inactive) | > 100 µM (inactive) | > 100 µM (inactive) | > 100 µM (inactive) | 63.1 µM (inactive) | > 100 µM (inactive) | > 100 µM (inactive) | > 100 µM (inactive) | > 100 µM (inactive) | > 100 µM (inactive) | > 100 µM (inactive) | > 100 µM (inactive) | > 100 µM (inactive) | > 100 µM (inactive) | > 100 µM (inactive) | > 100 µM (inactive) | > 100 µM (inactive) | > 100
11 | NC(=S)Nc1ccc2c(c1)oc1ccccc12 | > 100 µM (inactive) | > 100 µM (inactive) | > 100 µM (inactive) | 7.82 µM (inactive) | > 100 µM (inactive) | > 100 µM (inactive) | > 100 µM (inactive) | 7.1 µM (inactive) | > 83.6 µM (inactive) | > 100 µM (inactive) | 7.57 µM (inactive) | > 100 µM (inactive) | > 100 µM (inactive) | 11.7 µM (inactive) | > 100 µM (inactive) | > 100 µM (inactive) | > 100 µM (inactive) | > 100 µM (inactive) | > 28.4 µM (inactive) | 55.1
12 | CCOC(=O)/C=C(/C=C\COC1CCCCO1)c1ccccc1 (configuration not stated) | 24.7 µM (inactive) | 41.1 µM (inactive) | 40 µM (inactive) | 18.3 µM (inactive) | > 100 µM (inactive) | 31.2 µM (inactive) | 25.2 µM (inactive) | 20.4 µM (inactive) | 38.4 µM (inactive) | 48.1 µM (inactive) | 21.7 µM (inactive) | 24.5 µM (inactive) | 29.2 µM (inactive) | 27.5 µM (inactive) | 16.1 µM (inactive) | 24.8 µM (inactive) | 36.5 µM (inactive) | 24.5 µM (inactive) | 36 µM (inactive) | 27.4
13 | O=C(NC(=S)Nc1ccc2c(c1)Sc1ccccc1O2)c1ccccc1 | 20.3 µM (inactive) | 29.6 µM (inactive) | 36.2 µM (inactive) | 13.5 µM (inactive) | 27.4 µM (inactive) | 29.6 µM (inactive) | 29.5 µM (inactive) | 27.8 µM (inactive) | 30.8 µM (inactive) | 48 µM (inactive) | 31.8 µM (inactive) | 39.9 µM (inactive) | 35.7 µM (inactive) | 51.3 µM (inactive) | 20.4 µM (inactive) | 24.3 µM (inactive) | 34 µM (inactive) | 22.5 µM (inactive) | > 100 µM (inactive) | 14
14 | Fc1ccc(F)c(/C=N/C23CC4CC(CC(C4)C2)C3)c1 | > 10 µM (inactive) | > 10 µM (inactive) | > 10 µM (inactive) | 2.62 µM (inactive) | > 10 µM (inactive) | > 10 µM (inactive) | > 10 µM (inactive) | > 10 µM (inactive) | > 10 µM (inactive) | > 10 µM (inactive) | > 10 µM (inactive) | > 10 µM (inactive) | > 10 µM (inactive) | > 10 µM (inactive) | > 10 µM (inactive) | > 10 µM (inactive) | > 10 µM (inactive) |  | > 10 µM (inactive) | > 10
